# Results: patent US7772192B2, “Compositions and methods for treatment of disease with acetylated disaccharides” (The Regents of the University of California, priority 2003, dated 2010)
# Where “and” joins values, the source holds several entries; their conditions need not be identical. Equal values may be shown once. Read-outs that look alike come from different tables or passages of the source.
# Legend:
# [1] = system: LLC cells; assay: Experimental metastasis of pretreated LLC cells; assay type: in vivo, mice; conditions: cells treated 5 days, 3 weeks
# Procedure: (A) LLC cells were treated in culture for 4 days with peracetylated GlcNAcβ3Gal-NM or vehicle (DMSO/propylene glycol, v/v 1:1). Single-cell suspensions (2×10^5) were injected in the tail-veins of Es1(e) mice. After 3 weeks, the mice were sacrificed and the number of tumors present on the surface of the lungs was determined by visual inspection.
# LLC cells were treated in culture for 5 days with 4-deoxy AcGnG-NM, AcGnG-NM or vehicle (DMSO:propylene glycol) and then a single-cell suspension (2×10^5 cells) was injected in the tail vein of mice. After 3 weeks, the number of tumors present on the surface of the lungs was determined.
# [2] = system: mixed oligosaccharides; assay: Oligosaccharide priming, [6-3H]Gal incorporation; assay type: cell-based
# Text: (§1) A 4-deoxy modified acetylated disaccharide inhibits sLe^X expression in the absence of oligosaccharide priming.
# [3] = system: U937 cells; assay: sLe^X expression in U937 cells; assay type: cell-based
# Text: as §1
# [4] = system: β4GalTI; conditions: cited from earlier work
# [5] = system: Lewis carbohydrate antigens on cells; conditions: monosaccharide; cited from earlier work
# [6] = system: β4GalTI; assay: Acceptor specificity and inhibitory action of GlcNAc derivatives (β4galactosyltransferase); assay type: biochemical; conditions: no reference given
# Text: The compounds in Table 1 were selected based on information about β4GalTI, also known as lactose synthase. The enzyme adds galactose to GlcNAc-terminated oligosaccharides on glycoproteins and glycolipids, and will produce lactose in the presence of the cofactor, α-lactalbumin (Berger et al., Biochimie., 85, 261-274, 2003). It is part of a multigene family of β4galactosyltransferases (Hennet, Cell Mol Life. Sci., 59, 1081-1095, 2002; Amado et al., Biochim. Biophys. Acta Gen. Subj., 1473, 35-53, 1999). β4GalTI has been studied kinetically, its substrate specificity has been well documented, and X-ray structures with and without UDP-Gal are available (Gastinel et al., EMBO J., 18, 3546-3557, 1999; Ramakrishnan et al., J. Mol. Biol., 310, 205-218, 2001; Ramakrishnan et al., J. Mol. Biol., 318, 491-502, 2002).
# β4GalTI will act on free GlcNAc, GlcNAc-terminated oligosaccharides and GlcNAc glycosides, including GlcNAcβ3Gal-R (Table 2). […] One possibility for the discrepancy may be that the large aromatic aglycone in our compound may facilitate binding to the enzyme. […]
# [7] = system: sLe^X on LS180 cell surface; assay: ELISA with CSLEX-1 mAb of cell-surface sLe^X; assay type: cell-based, human; conditions: LS180 cells
# [8] = system: LS180 cells adhering to recombinant E- or P-selectin; assay: Cell adhesion to immobilized selectins, control values given for E- and P-selectin together; assay type: cell-based, human
# Procedure: Cell adhesion to immobilized selectins. 96-well plates were coated overnight at 4° C. with recombinant E-selectin (4 μg/ml) or P-selectin (2 μg/ml) (R & D Systems) and blocked with 1% BSA/PBS. LS180 cells were grown for 5 days with various amounts of acetylated disaccharide, harvested, labeled with Calcein AM (5 μM, Molecular Probes) in DMEM/1% FBS, and allowed to settle at room temperature on selectin-coated wells (5×10^4 cells/well). Plates were then stirred at 75 rpm for 30 min (Orbit shaker, Lab-Line Instruments) followed by immersion upside-down in a vessel filled with Hank's buffered saline solution (HBSS, Sigma), which allowed non-adherent cells to fall under gravity. St John et al., J. Immunol Methods, 170: 159-166, 1994. The wells were then washed by aspiration using HBSS. LS180 cells were less adherent to P-selectin, so the immersion step was not necessary prior to washing. […] Fluorescence was measured using a 96-well fluorimeter (CytoFluor II), and the average of triplicate measurements was determined±standard error. Cell viability was judged to be >90% by Trypan blue exclusion at the end of each experiment.
# Adhesion to selectins is altered in disaccharide-treated tumor cells. Treatment of LS180 cells with AcGnG-NM was not toxic to the cells up to 100 μM based on growth curves and exclusion of Trypan blue. […]
# [9] = system: sialyl Lewis X in HL-60, LS180, murine Lewis lung carcinoma, B16 murine melanoma cells; assay: Inhibition of sialyl Lewis X formation in cultured cells; assay type: cell-based
# Text: The disaccharides can be acylated with, e.g., acetyl, butyryl or benzoyl groups to reduce their hydrophilicity and make them permeable to cell membranes. […] The various disaccharides described above and their acylated or aryl derivatives are logical extensions of the present invention. In addition, analogs of the above compounds in which critical hydroxyl groups are missing or alkylated would bind to glycosyltransfersase and inhibit their activity.
# [10] = aromatic aglycones, read-out: Ki
compound,measurement,setting,value
4′-deoxy-GlcNAcβ3Gal-O-NM [4-deoxy AcGnG-NM],experimental metastasis (tumors on the surface of the lungs),[1],inhibited experimental metastasis
same,incorporation of [6-^3H]Gal into mixed oligosaccharides,[2],does not
same,sLe^X expression,[3],inhibit sLe^X expression
same,sLe^X expression,[3]; listed as 4-deoxy-GlcNAcβ3Gal-NM,inhibits formation of sLe^X
CO[C@@H]1O[C@H](CO)[C@@H](O)[C@H](OC)[C@H]1NC(C)=O [3-O-methyl-GlcNAcβ-O-Me],Km,"[4]; acceptor, read-out: Km",77000 µM
same,Vmax,[4],2.4 nmol/min
CO[C@@H]1O[C@H](CO)[C@@H](O)C[C@H]1NC(C)=O [3-deoxy-GlcNAcβ-OMe],Km,"[4]; acceptor, read-out: Km",4200 µM
CO[C@@H]1O[C@H](CO)[C@H](O)[C@H](O[C@@H]2O[C@H](CO)[C@@H](O)[C@H](F)[C@H]2NC(C)=O)[C@H]1O [3′-F-GlcNAcβ3Galβ-OMe],Ki,[4]; read-out: Ki,2700 µM
CC(=O)NC1C(OCc2ccccc2)OC(CO)C(N)C1O (centres unmarked) [4-NH2-GlcNAcβ-OBn],Km,"[4]; acceptor, unit not given",Inactive
same,Ki,[4]; read-out: Ki,850 µM
same,Vmax,[4]; unit not given,Inactive
COC1OC(CO)C(OC)C(O)C1NC(C)=O (centres unmarked) [4-O-methyl-GlcNAcβ-O-Me],Km,"[4]; acceptor, unit not given",Inactive
same,Ki,[4]; result in words,No inhibition
same,Vmax,[4]; unit not given,Inactive
COC1OC(CO)CC(O)C1NC(C)=O (centres unmarked) [4-deoxy-GlcNAcβ-O-Me],Km,"[4]; acceptor, unit not given",Inactive
same,inhibition of the enzyme (β4GalT1),[4],did not inhibit
same,Ki,[4]; result in words,No inhibition
same,Vmax,[4]; unit not given,Inactive
COC1OC(CO)C(F)C(O)C1NC(C)=O (centres unmarked) [4-fluoro-GlcNAcβ-OMe],Km,"[4]; acceptor, unit not given",Inactive
same,Ki,[4]; result in words,No inhibition
same,Vmax,[4]; unit not given,Inactive
COC1OC(CO)C(S)C(O)C1NC(C)=O (centres unmarked) [4-thio-GlcNAcβ-OMe],Km,"[4]; acceptor, unit not given",Inactive
same,Ki,[4]; result in words,No inhibition
same,Vmax,[4]; unit not given,Inactive
COC1OC(CO)C(O)C(OC2OC(CO)CC(O)C2NC(C)=O)C1O (centres unmarked) [4′-deoxy-GlcNAcβ3Galβ-OMe],Km,"[4]; acceptor, unit not given",Inactive
same,inhibition of the enzyme (β4GalT1),[4],did not inhibit
same,Ki,[4]; result in words,No inhibition
COC1OC(COC2OC(CO)CC(O)C2NC(C)=O)C(O)C(O)C1O (centres unmarked) [4′-deoxy-GlcNAcβ6Glcβ-OMe],Km,"[4]; acceptor, unit not given",Inactive
same,Ki,[4]; result in words,No inhibition
COC[C@H]1O[C@@H](OC)[C@H](NC(C)=O)[C@@H](O)[C@@H]1O [6-O-methyl-GlcNAcβ-O-Me],Vmax,[4],1.1 nmol/min
CO[C@@H]1O[C@H](C)[C@@H](O)[C@H](O)[C@H]1NC(C)=O [6-deoxy-GlcNAcβ-O-Me],Km,"[4]; acceptor, read-out: Km",500 µM
COC1OC(CO)C(O)C(OC2OC(CS)C(O)C(O)C2NC(C)=O)C1O (centres unmarked) [6′-thio-GlcNAcβ3Galβ-OMe],Km,"[4]; acceptor, unit not given",Inactive
same,inhibition of the enzyme (β4GalT1),[4],weak inhibitor
same,Ki,[4]; read-out: Ki,1000 µM
same,Vmax,[4]; unit not given,Inactive
CO[C@@H]1O[C@H](CO[C@@H]2O[C@H](CS)[C@@H](O)[C@H](O)[C@H]2NC(C)=O)[C@@H](O)[C@H](O)[C@H]1O [6′-thio-GlcNAcβ6Glcβ-OMe],Km,"[4]; acceptor, read-out: Km",1200 µM
"OC[C@@H]1C[C@H](O)[C@@H](O)C(O)O1 (some centres unmarked) [Compound 4-deoxy-Glc, 4-deoxy-Glc]",inhibition of β4GalT1,[4]; in the presence of lactalbumin,weak inhibitor
CC(=O)N[C@H]1[C@@H](OCc2ccccc2)O[C@H](CO)[C@H](O)[C@@H]1O [GalNAcα-O-benzyl],concentration needed to achieve a similar level of inhibition,[5],1 to 5 mM
CC(=O)N[C@H]1C(O)O[C@H](CO)[C@@H](O)[C@@H]1O (some centres unmarked) [GlcNAc],Km,[4]; read-out: Km,1000 to 10000 µM
CC(=O)N[C@H]1[C@H](O[C@H]2[C@@H](O)[C@@H](CO)O[C@@H](OCc3ccc4ccccc4c3)[C@@H]2O)O[C@H](CO)[C@@H](O)[C@@H]1O [GlcNAcβ3Galβ-O-2-NM],Km,[6],< 10 µM
CO[C@@H]1O[C@H](CO)[C@H](O)[C@H](O[C@@H]2O[C@H](CO)[C@@H](O)[C@H](O)[C@H]2NC(C)=O)[C@H]1O [GlcNAcβ3Galβ-OMe],Km,"[4]; acceptor, read-out: Km",1100 µM
CC(=O)NC1C(Oc2cccc3ccccc23)OC(CO)C(O)C1O (centres unmarked) [GlcNAcβ-O-1-naphthol],Ki,[4]; [10],22 µM
CC(=O)N[C@H]1[C@H](Oc2c(Br)ccc3ccccc23)O[C@H](CO)[C@@H](O)[C@@H]1O [GlcNAcβ-O-2-bromonaphthol],Ki,[4]; [10],7.6 µM
CC(=O)N[C@H]1[C@H](Oc2c(C)ccc3ccccc23)O[C@H](CO)[C@@H](O)[C@@H]1O [GlcNAcβ-O-2-methylnaphthol],Ki,[4]; [10],3.5 µM
CC(=O)NC1C(Oc2ccc3ccccc3c2)OC(CO)C(O)C1O (centres unmarked) [GlcNAcβ-O-2-naphthol],Ki,[4]; [10],9.5 µM
CO[C@@H]1O[C@H](CO)[C@@H](O)[C@H](O)[C@H]1NC(C)=O [GlcNAcβ-O-Me],Km,"[4]; acceptor, read-out: Km",1300 µM and 1800 µM and 1500 µM
"Galβ1,3Galβ-O-naphthalenemethanol [AcGG-NM]",expression of sLe^X on the cell surface,[7],no effect
same,extent of adhesion normalized to cells not treated with disaccharide,"[8]; E- and P-selectin, disaccharide at 50 μM",0.95-1.1
same,adhesion to either selectin conjugate,[8]; LS180 cells,no effect
"Galβ1,4GlcNAcβ-O-naphthalenemethanol [AcGGn-NM]",formation of sialyl Lewis X,[9],inhibit the formation of sialyl Lewis X
